Earlier results as cited in patent publication US20030219468A1 (priority 2002, published 2003).

Assays:
[1] = cold water
[2] = sorbic acid and its salts
Plasmodium berghei = conditions: mice, toward Plasmodium berghei

| Compound | solubility [1] | microbiostatic antimycotic activity [2] | immunizing activity (Plasmodium berghei) |
| --- | --- | --- | --- |
| C/C=C/C=C/C(=O)O [Sorbic acid, trans,trans-2,4-hexadienoic acid] | only slightly soluble | very high microbiostatic antimycotic activity | – |
| Curdlan | – | – | immunizing activity |
